pIC50: −log10 of the molar value. Where a name gives a salt, the structure may show the parent alone. Read-outs that look alike come from different tables or passages of the source.
Columns and labels:
[1] = target: T1, JAK1 (recombinant purified GST-tagged catalytic domain) (Homo sapiens (Human), UniProt P23458);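 further: biochemical assay with HTRF read-out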
[2] = target: T1, JAK1 (recombinant purified GST-tagged catalytic domain); assay: biochemical
[3] = target: JAK2 (recombinant purified GST-tagged catalytic domain) (Homo sapiens (Human), UniProt O60674); assay: biochemical;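 further: biochemical JAK kinase assay with HTRF detection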
Chain of JAK2 (recombinant purified GST-tagged catalytic domain) (O60674 849-1124): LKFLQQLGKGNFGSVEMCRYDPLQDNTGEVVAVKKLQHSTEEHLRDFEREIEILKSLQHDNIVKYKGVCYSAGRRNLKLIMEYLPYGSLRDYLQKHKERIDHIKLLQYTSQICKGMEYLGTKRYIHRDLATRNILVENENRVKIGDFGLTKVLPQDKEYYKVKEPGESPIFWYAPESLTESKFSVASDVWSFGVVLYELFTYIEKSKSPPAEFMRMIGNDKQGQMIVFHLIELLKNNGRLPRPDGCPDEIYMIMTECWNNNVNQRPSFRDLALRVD

T1 sequence (P23458 875-1153): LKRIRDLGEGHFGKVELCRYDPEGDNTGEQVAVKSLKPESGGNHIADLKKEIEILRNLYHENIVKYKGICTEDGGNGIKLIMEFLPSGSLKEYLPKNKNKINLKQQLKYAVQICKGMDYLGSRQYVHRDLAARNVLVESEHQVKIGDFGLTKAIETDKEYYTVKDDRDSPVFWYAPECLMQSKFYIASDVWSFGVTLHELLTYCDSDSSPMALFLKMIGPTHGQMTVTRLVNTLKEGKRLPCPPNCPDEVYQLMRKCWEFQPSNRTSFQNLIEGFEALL

Row | pIC50 [1] | pIC50 [2] | pIC50 [3] | Structure (SMILES)
1 | 9.00 | – | – | C[N+]1([C@H]2CC[C@H](n3cc(C(N)=O)c(Nc4ccc(Cl)cc4)n3)[C@@H](C#N)C2)CCC1 [Example 31-2, 1-[(1S,3S,4S)-4-{4-carbamoyl-3-[(4-chlorophenyl)amino]-1H-pyrazol-1-yl}-3-cyanocyclohexyl]-1-methylazetidinium]
2 | 9.05 | – | – | CC1(N[C@H]2CCC(n3cc(C(N)=O)c(Nc4ccc(Cl)cc4)n3)[C@@H](C#N)C2)CC1 (single isomer, unassigned) [Example 28-205, 3-[(4-chlorophenyl)amino]-1-{(1S,2S,4S or 1R,2R,4R,)-2-cyano-4-[(1-methylcyclopropyl)amino]cyclo-hexyl}-1H-pyrazole-4-carboxamide]
3 | 9.30 | – | – | CN(C)[C@@H]1CC[C@H](n2cc(C(N)=O)c(Nc3ccc(S(=O)(=O)C(F)(F)F)cc3)n2)[C@@H](C#N)C1 (mixture of isomers) [Example 27-2, 1-[(1R,3S,4S and 1S,3R,4R)-4-[4-carbamoyl-3-({4-[(trifluoromethyl)sulfonyl]phenyl}amino)-1H-pyrazol-1-yl]-3-cyano-N,N-dimethylcyclohexanaminium trifluoroacetate]
4 | – | 8.70 | 7.74 | N#C[C@H]1CC(N2CC[C@@H](F)C2)CC[C@@H]1n1cc(C(N)=O)c(Nc2ccc(S(=O)(=O)C(F)(F)F)cc2)n1 (single isomer, unassigned) [Example 28-159, 1-{(1S,2S or 1R,2R)-2-cyano-4-[(3R)-3-fluoropyrrolidin-1-yl]cyclohexyl}-3-({4-[(trifluoro-methyl)sulfonyl]phenyl}amino)-1H-pyrazole-4-carboxamide]
5 | – | 7.37 | < 6.30 | N#C[C@H]1C[C@@H](C(=O)N2CC3(COC3)C2)CC[C@@H]1n1cc(C(N)=O)c(Nc2ccc(Cl)cc2)n1 (single isomer, unassigned) [Example 35-37, 3-[(4-chlorophenyl)amino]-1-[(1S,2S,4S or 1R,2R,4R)-2-cyano-4-(2-oxa-6-azaspiro[3.3]hept-6-ylcarbonyl)cyclohexyl]-1H-pyrazole-4-carboxamide]
6 | – | 7.89 | 7.23 | N#C[C@H]1C[C@@](O)(C2CC2)CC[C@@H]1n1cc(C(N)=O)c(Nc2ccc(Cl)c(F)c2)n1 (single isomer, unassigned) [Example 32-1, 3-[(4-Chloro-3-fluorophenyl)amino]-1-[(1S,2S,4S or 1R,2R,4R)-2-cyano-4-cyclopropyl-4-hydroxycyclohexyl]-1H-pyrazole-4-carboxamide]
7 | – | 9.52 | 8.05 | N#C[C@H]1C[C@@H](NCc2ccccc2)CC[C@@H]1n1cc(C(N)=O)c(Nc2ccnc(F)c2)n1 (single isomer, unassigned) [Example 28-97, 1-[(1S,2S,4S or 1R,2R,4R)-4-(benzylamino)-2-cyanocyclohexyl]-3-[(2-fluoropyridin-4-yl)amino]-1H-pyrazole-4-carboxamide]
8 | – | 9.05 | 7.66 | N#C[C@H]1C[C@H](N2C[C@@H]3[C@@H](CO)[C@@H]3C2)CC[C@@H]1n1cc(C(N)=O)c(Nc2ccc(C(F)(F)F)cc2)n1 (single isomer, unassigned) [Example 28-15, 1-{(1S,2S,4R or 1R,2R,4S)-2-cyano-4-[(1R,5S,6R or 1S,5R,6S)-6-(hydroxymethyl)-3-azabicyclo[3.1.0]hex-3-yl]cyclohexyl}-3-{[4-(trifluoromethyl)phenyl]amino}-1H-pyrazole-4-carboxamide]
9 | – | 7.92 | 7.34 | CN([C@@H]1CC[C@H](n2cc(C(N)=O)c(Nc3ccc(Cl)cc3)n2)[C@@H](C#N)C1)S(C)(=O)=O (racemic) [Example 38-5, 3-[(4-chlorophenyl)amino]-1-{(1S,2S,4R and 1R,2R,4S)-2-cyano-4-[methyl(methylsulfonyl)amino]cyclohexyl}-1H-pyrazole-4-carboxamide]
10 | – | 9.52 | 8.22 | N#C[C@H]1C[C@@H](N2CCOCC2)CCC1n1cc(C(N)=O)c(Nc2ccc(S(=O)(=O)C(F)(F)F)cc2)n1 (mixture of isomers) [Example 27-13, 1-[(1S,2S,4S and 1R,2R,4R)-2-cyano-4-(morpholin-4-yl)cyclohexyl]-3-({4-[(trifluoromethyl)sulfonyl]phenyl)amino)-1H-pyrazole-4-carboxamide]
11 | – | 8.52 | 6.96 | CN(C)[C@H]1CC[C@H](n2cc(C(N)=O)c(Nc3ccnc(F)c3)n2)[C@@H](C#N)C1 (single isomer, unassigned) [Example 28-128, 1-[(1S,2S,4S or 1R,2R,4R)-2-cyano-4-(dimethylamino)cyclohexyl]-3-[(2-fluoropyridin-4-yl)amino]-1H-pyrazole-4-carboxamide]
12 | – | 9.00 | 8.22 | CN([C@H]1CC[C@H](n2cc(C(N)=O)c(Nc3ccc(Cl)cc3)n2)[C@@H](C#N)C1)S(C)(=O)=O (racemic) [Example 38-6, 3-[(4-chlorophenyl)amino]-1-{(1S,2S,4R and 1R,2R,4S)-2-cyano-4-[methyl(methylsulfonyl)amino]cyclohexyl}-1H-pyrazole-4-carboxamide]
13 | – | 8.30 | 7.64 | N#C[C@@H]1C[C@H](C(=O)NC2CC2)CC[C@H]1n1cc(C(N)=O)c(Nc2ccc(Cl)cc2)n1 (single isomer, unassigned) [Example 35-19, 3-[(4-chlorophenyl)amino]-1-[(1R,2R,4R or 1S,2S,4S)-2-cyano-4-(cyclopropylcarbamoyl)cyclohexyl]-1H-pyrazole-4-carboxamide]
14 | – | 8.70 | 7.44 | CN[C@@H]1CC[C@H](n2cc(C(N)=O)c(Nc3ccc(Cl)cc3)n2)[C@@H](C#N)C1 (single isomer, unassigned) [Example 28-42, 3-[(4-chlorophenyl)amino]-1-[(1S,2S,4R or 1R,2R,4S)-2-cyano-4-(methylamino)cyclohexyl]-1H-pyrazole-4-carboxamide]
15 | – | 9.70 | 7.59 | CC(C)(C)N[C@H]1CCC(n2cc(C(N)=O)c(Nc3ccc(C(F)(F)F)cc3)n2)[C@@H](C#N)C1 (single isomer, unassigned) [Example 28-204, 1-[(1S,2S,4S or 1R,2R,4R)-4-(tert-butylamino)-2-cyanocyclohexyl]-3-{[4-(trifluoromethyl)phenyl]amino}-1H-pyrazole-4-carboxamide]

Second part, the molecule before the results:

Row | Structure (SMILES) | pIC50 [1] | pIC50 [2] | pIC50 [3]
16 | CC(C)(C)OC(=O)C1CCC(n2cc(C(N)=O)c(Nc3ccc(S(=O)(=O)C(F)(F)F)cc3)n2)C(C#N)C1 (stereo not drawn) [Example 17-2, tert-butyl 4-[4-carbamoyl-3-({4-[(trifluoromethyl)sulfonyl]phenyl}amino)-1H-pyrazol-1-yl]-3-cyanocyclohexanecarboxylate] | 7.64 | – | –
17 | CC(O)(c1ccc(Nc2nn([C@H]3CCCC[C@@H]3C#N)cc2C(N)=O)cn1)C(F)F (single isomer, unassigned) [Example 17-40, 1-[(1S,2S or 1R,2R)-2-cyanocyclohexyl]-3-({6-[(1R or 1S)-2,2-difluoro-1-hydroxy-1-methylethyl]pyridin-3-yl}amino)-1H-pyrazole-4-carboxamide] | 9.62 | – | –
18 | N#C[C@H]1CCCC[C@@H]1n1cc(C(N)=O)c(Nc2cnc3ccc(Cl)cc3c2)n1 (single isomer, unassigned) [Example 17-60, 3-[(6-chloroquinolin-3-yl)amino]-1-[(1S,2S or 1R,2R)-2-cyanocyclohexyl]-1H-pyrazole-4-carboxamide] | – | 8.22 | 7.64
19 | N#C[C@@H]1C[C@H](OCC2CC2)CC[C@@H]1n1cc(C(N)=O)c(Nc2ccnc(F)c2)n1 (single isomer, unassigned) [Example 26-4, 1-[(1S,2R,4R or 1R,2S,4S)-2-cyano-4-(cyclopropylmethoxy)cyclohexyl]-3-[(2-fluoropyridin-4-yl)amino]-1H-pyrazole-4-carboxamide] | – | 7.68 | 7.13
20 | N#Cc1ccc(Nc2nn([C@H]3CCCC[C@@H]3C#N)cc2C(N)=O)cc1 (racemic) [Example 17-5, 1-[(1S,2S and 1R,2R)-2-cyanocyclohexyl]-3-[(4-cyanophenyl)amino]-1H-pyrazole-4-carboxamide] | – | 9.00 | 8.05
21 | N#C[C@@H]1CC(CN)CCC1n1cc(C(N)=O)c(Nc2ccc(F)cc2)n1 (mixture of isomers) [Example 9, 1-((1R,2R and 1S,2S)-4-(Aminomethyl)-2-cyanocyclohexyl)-3-((4-fluorophenyl)amino)-1H-pyrazole-4-carboxamide] | – | 7.92 | 6.61
22 | N#C[C@H]1CCCC[C@@H]1n1cc(C(N)=O)c(Nc2ccc(S(=O)(=O)NCc3ccc(Cl)cc3)cc2)n1 (single isomer, unassigned) [Example 17-90, 3-({4-[(4-chlorobenzyl)sulfamoyl]phenyl}amino)-1-[(1R,2R or 1S,2S)-2-cyanocyclohexyl]-1H-pyrazole-4-carboxamide] | – | 9.00 | 8.40
23 | N#C[C@H]1C[C@@H](CF)CC[C@@H]1n1cc(C(N)=O)c(Nc2ccnc(F)c2)n1 (racemic) [Example 37, 1-[(1S,2S,4S and 1R,2R,4R)-2-Cyano-4-(fluoromethyl)cyclohexyl]-3-[(2-fluoropyridin-4-yl)amino]-1H-pyrazole-4-carboxamide] | – | 9.10 | 7.89
24 | N#C[C@H]1CCCC[C@@H]1n1cc(C(N)=O)c(Nc2ccc(C(F)(F)F)nc2)n1 (single isomer, unassigned) [Example 17-101, 1-[(1S,2S or 1R,2R)-2-cyanocyclohexyl]-3-{[6-(trifluoromethyl)pyridin-3-yl]amino}-1H-pyrazole-4-carboxamide] | – | 8.70 | 8.05
25 | N#C[C@H]1CCCC[C@@H]1n1cc(C(N)=O)c(Nc2ccc(S(=O)(=O)NCc3ccc(C(F)(F)F)cc3)cc2)n1 (single isomer, unassigned) [Example 17-96, 1-[(1R,2R or 1S,2S)-2-cyanocyclohexyl]-3-[(4-{[4-(trifluoromethyl)benzyl]sulfamoyl}phenyl)amino]-1H-pyrazole-4-carboxamide] | – | 8.70 | 8.15
